Source: patent US5556864A, “α-ω-diarylalkane compounds serotonin-2 receptor agonists” (Sankyo Company, Limited, priority 1992, dated 1996)
pIC50: −log10 of the molar value. Where a name gives a salt, the structure may show the parent alone.

Tests used:
5-HT2 receptors = target: T1, 5-HT2 receptors (Rattus norvegicus, UniProt P14842); assay: Vasoconstriction experiment: relaxation of rat caudal artery strips precontracted with 5-HT; format: cell-based, rat (male Sprague-Dawley); settings: precontracted with 5-HT 3×10^-6 M; concentration causing one half of maximum relaxation (papaverine 10^-4 M = maximum); 37 °C
T1 construct: The caudal arteries were dissected free from connective tissue and cut into spiral strips; from tissue; host or cells: rat caudal artery, spiral strips
T1 sequence (P14842 whole entry): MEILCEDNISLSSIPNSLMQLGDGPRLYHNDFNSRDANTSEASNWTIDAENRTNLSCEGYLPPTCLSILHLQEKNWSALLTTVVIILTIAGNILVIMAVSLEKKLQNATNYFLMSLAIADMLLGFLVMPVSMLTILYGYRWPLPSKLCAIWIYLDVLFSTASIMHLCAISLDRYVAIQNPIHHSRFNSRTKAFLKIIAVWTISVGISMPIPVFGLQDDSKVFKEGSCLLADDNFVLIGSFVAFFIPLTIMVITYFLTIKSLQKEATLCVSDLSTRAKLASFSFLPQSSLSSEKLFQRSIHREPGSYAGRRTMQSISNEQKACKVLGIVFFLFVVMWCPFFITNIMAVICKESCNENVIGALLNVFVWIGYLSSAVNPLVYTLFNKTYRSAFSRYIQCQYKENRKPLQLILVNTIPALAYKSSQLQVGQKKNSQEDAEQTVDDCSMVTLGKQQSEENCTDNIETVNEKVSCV
Experimental: (§1) Vasoconstriction Experiment
(§2) Contractions of the rat caudal ateries were investigated by the method of Van Neuten et al. (J. Pharmacol. Exp. Ther., 218, 217-230, 1981).
(§3) Male Sprague-Dawley rats, each weighing approximately 500 g, were sacrificed by rapid exsanguination. The caudal arteries were dissected free from connective tissue and cut into spiral strips (2×20 mm). The resulting preparations were mounted in organ baths, each containing 10 ml of Tyrode solution maintained at 37° C., and then gassed with a mixture of 95% by volume O2 and 5% CO2. The preparations were allowed to equilibrate for 1 hour before being used in the experiment.
(§4) An initial optimum resting tension of 0.5 g was applied to the preparations, and isometric contractions were recorded with force-displacement transducers. The relaxant effects of the test compounds were determined on preparations which had been precontracted with 5-HT (5-hydroxytryptamine) (3×10^-6 M), which is an agonist of the 5-HT2 receptors, or phenylephrine (10^-6 M), which is an agonist of the adrenaline-α1 receptors. After the constractile response to the 5-HT or the phenylephrine had reached a steady state, the test compound was added cumulatively to the bathing medium. At the end of the experiments, papaverine (10^-4 M) was added to produce the maximum relaxation.
(§5) The relaxation induced by each test compound was calculated as a percentage of the maximum relaxation induced by 10^-4 M of papaverine. The concentrations causing one half of the maximum relaxation (IC50) were calculated by the method of least squares.

adrenaline-α1 receptors = assay: Vasoconstriction experiment: relaxation of rat caudal artery strips precontracted with phenylephrine; format: cell-based, rat (male Sprague-Dawley); settings: precontracted with phenylephrine 10^-6 M; concentration causing one half of maximum relaxation (papaverine 10^-4 M = maximum); 37 °C; read-out: IC50 adrenalin-α1
Experimental: as §1, §2, §3, §4, §5

In the case of `CN1CCCC1CCOc1ccccc1CCc1ccccc1C#N` (stereo not shown) [Example 108, 2-(2-{2-[2-(2-Cyanophenyl)ethyl]phenoxy}ethyl)-1-methylpyrrolidine hydrochloride], the pIC50 (5-HT2 receptors) was 8.66 and the pIC50 (adrenaline-α1 receptors) was 5.77.

`COc1cccc(CCc2ccccc2OC[C@H]2CCCNC2)c1` [Example 120, (S)-3-{2-[2-(3-Methoxyphenyl)ethyl]phenoxymethyl}piperidine hydrochloride] gave a pIC50 (5-HT2 receptors) of 8.38.

For `FC(F)Oc1cccc(CCc2ccccc2OCC2CCCNC2)c1` (stereo not shown) [Example 123, 3-{2-[2-(3-Difluoromethoxyphenyl)ethyl]phenoxymethyl}piperidine hydrochloride], the pIC50 (5-HT2 receptors) was 8.24.

`CCOc1cccc(CCc2ccccc2OCCC2CCCN2C)c1` (stereo not shown) [Example 99, 2-(2-{2-[2-(3-Ethoxyphenyl)ethyl]phenoxy}ethyl)-1-methylpyrrolidine hydrochloride] was tested, and the pIC50 (5-HT2 receptors) was 8.21 and the pIC50 (adrenaline-α1 receptors) was 5.89.

`CCOc1ccc(CCc2ccccc2OCCC2CCCN2C)cc1` (stereo not shown) [Example 101, 2-(2-{2-[2-(4-Ethoxyphenyl)ethyl]phenoxy}ethyl)-1-methylpyrrolidine hydrochloride] showed a pIC50 (5-HT2 receptors) of 8.43 and a pIC50 (adrenaline-α1 receptors) of 5.43.

`COc1cccc(CCc2ccccc2OCC[C@@H]2CCCN2C)c1` [Example 113, (S)-2-(2-{2-[2-(3-Methoxyphenyl)ethyl]phenoxy}ethyl)-1-methylpyrrolidine hydrochloride] gave a pIC50 (5-HT2 receptors) of 8.66 and a pIC50 (adrenaline-α1 receptors) of 5.92.

In the case of `COc1cccc(CCc2ccccc2OC[C@@H]2CCCN2C)c1` [Example 58, (S)-2-{2-[2-(3-Methoxyphenyl)ethyl]phenoxymethyl}-1-methylpyrrolidine hydrochloride], the pIC50 (5-HT2 receptors) was 8.30 and the pIC50 (adrenaline-α1 receptors) was 5.31.

With `COc1cccc(CCc2ccccc2OC[C@H]2CCCN(C)C2)c1` [Example 121, (S)-3-{2-[2-(3-Methoxyphenyl)ethyl]phenoxymethyl}-1-methylpiperidine hydrochloride] the pIC50 (5-HT2 receptors) was 8.66.

Compound `COc1cccc(CCc2ccccc2OCCC2CCCCN2C)c1` (stereo not shown) [Example 48, 2-(2-{2-[2-(3-Methoxyphenyl)ethyl]phenoxy}ethyl)-1-methylpiperidine hydrochloride] has a pIC50 (5-HT2 receptors) of 8.43 and a pIC50 (adrenaline-α1 receptors) of 5.60.

Compound `COc1cccc(CCc2ccccc2OCC2CCCN(C)C2)c1` (stereo not shown) [Example 50, 3-{2-[2-(3-Methoxyphenyl)ethyl]phenoxymethyl}-1-methylpiperidine hydrochloride] has a pIC50 (5-HT2 receptors) of 8.37 and a pIC50 (adrenaline-α1 receptors) of 5.43.

In the case of `COc1cc(CCc2ccccc2OCC[C@@H]2C[C@@H](O)CN2C)cc(OC)c1` [Example 118, (2R,4R)-4-hydroxy-2-(2-{2-[2-(3,5-dimethoxyphenyl)ethyl]phenoxy}ethyl)-1-methylpyrrolidine], the pIC50 (5-HT2 receptors) was 8.59 and the pIC50 (adrenaline-α1 receptors) was 5.27.

`CN1CCC[C@H]1CCOc1ccccc1CCc1cccc(OC(F)F)c1` [Example 116, (S)-2-(2-{2-[2-(3-Difluoromethoxyphenyl)ethyl]phenoxy}ethyl)-1-methylpyrrolidine hydrochloride] showed a pIC50 (5-HT2 receptors) of 8.66.

For `CN1CCCC(COc2ccccc2CCc2cccc(OC(F)F)c2)C1` (stereo not shown) [Example 124, 3-{2-[2-(3-Difluoromethoxyphenyl)ethyl]phenoxymethyl}-1-methylpiperidine hydrochloride], the pIC50 (5-HT2 receptors) was 8.34.

`CN1CCCC1CCOc1ccccc1CCc1cccc(Br)c1` (stereo not shown) [Example 98, 2-(2-{2-[2-(3-Bromophenyl)ethyl]phenoxy}ethyl)-1-methylpyrrolidine hydrochloride] showed a pIC50 (5-HT2 receptors) of 8.27 and a pIC50 (adrenaline-α1 receptors) of 5.66.

Compound `CN1CCCC1CCOc1ccccc1CCc1ccccc1F` (stereo not shown) [Example 97, 2-(2-{2-[2-(2-Fluorophenyl)ethyl]phenoxy}ethyl)-1-methylpyrrolidine hydrochloride] has a pIC50 (5-HT2 receptors) of 8.19 and a pIC50 (adrenaline-α1 receptors) of 6.07.
